In patent US20180318287A1, “Imidazo[4,5-c]quinolin-2-one Compounds and Their Use in Treating Cancer” (ASTRAZENECA AB, priority 2015, published 2018):
Where two headings read alike, the source gives them in different places.

Tests used:
Type in all cases: cell-based
[1] = biological target: T1, ATR kinase (Homo sapiens, UniProt Q13535); assay: Assay b): ATR cellular potency (pChk1 Ser345 in HT29 cells after 4NQO)
T1 construct: endogenous in cells; host or cells: HT29 cells (ECACC #85061109)
Procedure, shortened: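 HT29 cells were preincubated with compound for 1 h at 37 °C, 5% CO2, then stimulated with 4NQO for a further 1 h; wells without 4NQO served as the null control. Cells permeabilised with 0.1% Triton X-100. Chk1 Ser345 phosphorylation imaged on ArrayScan VTI at 10× objective.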

[2] = biological target: PI3K-α (Homo sapiens, UniProt P42336); assay: Assay c): PI3K cellular potency (phospho-Akt T308 ELISA in BT474 cells); conditions: for Assay c) PI3Ka Cell IC50: BT474 cells, phospho-Akt T308, 2 h, Table 3 comparative data; for IC50: BT474 cells, phospho-Akt T308, 2 h; Table 2; read-out: Assay c) PI3Kα Cell IC50
From the text: This assay was used to measure PI3K-α inhibition in cells. PDK1 was identified as the upstream activation loop kinase of protein kinase B (Akt1), which is essential for the activation of PKB. Activation of the lipid kinase phosphoinositide 3 kinase (PI3K) is critical for the activation of PKB by PDK1.
Following ligand stimulation of receptor tyrosine kinases, PI3K is activated, which converts PIP2 to PIP3, which is bound by the PH domain of PDK1 resulting in recruitment of PDK1 to the plasma membrane where it phosphorylates AKT at Thr308 in the activation loop.
The aim of this cell-based mode of action assay is to identify compounds that inhibit PDK activity or recruitment of PDK1 to membrane by inhibiting PI3K activity. Phosphorylation of phospho-Akt (T308) in BT474c cells following treatment with compounds for 2 h is a direct measure of PDK1 and indirect measure of PI3K activity.
BT474 cells (human breast ductal carcinoma, ATCC HTB-20) were seeded into black 384 well plates (Costar, #3712) at a density of 5600 cells/well in DMEM containing 10% FBS and 1% glutamine and allowed to adhere overnight.
The following morning compounds in 100% DMSO were added to assay plates by acoustic dispensing. After a 2 h incubation at 37° C. and 5% CO2, the medium was aspirated and the cells were lysed with a buffer containing 25 mM Tris, 3 mM EDTA, 3 mM EGTA, 50 mM sodium fluoride, 2 mM Sodium orthovanadate, 0.27M sucrose, 10 mM β-glycerophosphate, 5 mM sodium pyrophosphate, 0.5% Triton X-100 and complete protease inhibitor cocktail tablets (Roche #04 693 116 001, used 1 tab per 50 ml lysis buffer).
After 20 minutes, the cell lysates were transferred into ELISA plates (Greiner #781077) which had been pre-coated with an anti total-AKT antibody in PBS buffer and non-specific binding was blocked with 1% BSA in PBS containing 0.05% Tween 20. Plates were incubated over night at 4° C. The next day the plates were washed with PBS buffer containing 0.05% Tween 20 and further incubated with a mouse monoclonal anti-phospho AKT T308 for 2 h. Plates were washed again as above before addition of a horse anti-mouse-HRP conjugated secondary antibody. Following a 2 h incubation at r.t., plates were washed and QuantaBlu substrate working solution (Thermo Scientific #15169, prepared according to provider's instructions) was added to each well. The developed fluorescent product was stopped after 60 minutes by addition of Stop solution to the wells. Plates were read using a Tecan Safire plate reader using 325 nm excitation and 420 nm emission wavelengths respectively. Except where specified, reagents contained in the Path Scan Phospho AKT (Thr308) sandwich ELISA kit from Cell Signalling (#7144) were used in this ELISA assay.

[3] = biological target: T2, mTOR (Homo sapiens, UniProt P42345); assay: Assay d): mTOR cellular potency (phospho-AKT Ser473 in MDA-MB-468 cells)
T2 construct: phosphorylation of the Akt protein at Ser473 (AKT lies downstream of PI3Kα in the signal transduction pathway) in the MDA-MB-468 cells; endogenous in cells; host or cells: MDA-MB-468 cells (ATCC HTB 132)
Protocol: This assay was used to measure mTOR inhibition in cells. The aim of the phospho-AKT cell based mechanism of action assay using the Acumen Explorer is to identify inhibitors of either PI3Kα or mTOR-Rictor (Rapamycin insensitive companion of mTOR). This is measured by any decrease in the phosphorylation of the Akt protein at Ser473 (AKT lies downstream of PI3Kα in the signal transduction pathway) in the MDA-MB-468 cells following treatment with compound.
MDA-MB-468 cells (human breast adenocarcinoma #ATCC HTB 132) were seeded at 1500 cells/well in 40 μl of DMEM containing 10% FBS and 1% glutamine into Greiner 384 well black flat-bottomed plates. Cell plates were incubated for 18 h in a 37° C. incubator before dosing with compounds of Formula (I) in 100% DMSO using acoustic dispensing. Compounds were dosed in a 12 point concentration range into a randomised plate map. Control wells were generated either by dosing of 100% DMSO (max signal) or addition of a reference compound (a PI3K-βinhibitor) that completely eliminated the pAKT signal (min control). Plates were incubated at 37° C. for 2 h; cells were then fixed by the addition of 10 μl of a 3.7% formaldehyde solution. After 30 minutes the plates were washed with PBS using a Tecan PW384 plate washer. Wells were blocked and cells permeabilised with the addition of 40 μl of PBS containing 0.5% Tween20 and 1% Marvel™ (dried milk powder) and incubated for 60 minutes at r.t. The plates were washed with PBS containing 0.5% (v/v) Tween20 and 20 μl rabbit anti-phospho AKT Ser473 (Cell Signalling Technologies, #3787) in same PBS-Tween+1% Marvel™ was added and incubated overnight at 4° C.
Plates were washed 3 times with PBS+0.05% Tween 20 using a Tecan PW384. 20 μl of secondary antibody Alexa Fluor 488 anti-Rabbit (Molecular Probes, #A11008) diluted in PBS+0.05% Tween20 containing 1% Marvel™ was added to each well and incubated for 1 h at r.t. Plates were washed three times as before then 20 μl PBS added to each well and plates sealed with a black plate sealer.
The plates were read on an Acumen plate reader as soon as possible, measuring green fluorescence after excitation with 488 nm laser. Using this system IC50 values were generated and quality of plates was determined by control wells. Reference compounds were run each time to monitor assay performance.

[4] = biological target: T3, ATM kinase (Homo sapiens, UniProt Q13315); assay: Assay a): ATM cellular potency (pATM Ser1981 in irradiated HT29 cells)
T3 construct: endogenous in cells; host or cells: HT29 cells (ECACC #85061109)
Procedure, shortened: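 HT29 cells pretreated with compound for 1 h at 37° C, X-ray irradiated (~600 cGy), then incubated 1 h more. Cells fixed, Triton-permeabilised and immunostained for pATM Ser1981; fluorescence quantified by ArrayScan high-content imaging.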

[5] = HT29 cells, 4NQO, pChk1 Ser345; Table 3 comparative data; read-out: Assay b) ATR Cell IC50
[6] = MDA-MB-468 cells, phospho-AKT Ser473, 2 h; Table 3 comparative data; read-out: Assay d) mTOR Cell IC50
[7] = HT29 cells, X-ray irradiation, pATM Ser1981; Table 3 comparative data; read-out: Assay a) ATM Cell IC50
[8] = HT29 cells, X-ray irradiation, pATM Ser1981; Table 2; read-out: Assay a) ATM Cell IC50
[9] = HT29 cells, 4NQO, pChk1 Ser345; Table 2; read-out: Assay b) ATR Cell IC50
[10] = MDA-MB-468 cells, phospho-AKT Ser473, 2 h; Table 2; read-out: Assay d) mTOR Cell IC50

T3 sequence (Q13315 whole entry): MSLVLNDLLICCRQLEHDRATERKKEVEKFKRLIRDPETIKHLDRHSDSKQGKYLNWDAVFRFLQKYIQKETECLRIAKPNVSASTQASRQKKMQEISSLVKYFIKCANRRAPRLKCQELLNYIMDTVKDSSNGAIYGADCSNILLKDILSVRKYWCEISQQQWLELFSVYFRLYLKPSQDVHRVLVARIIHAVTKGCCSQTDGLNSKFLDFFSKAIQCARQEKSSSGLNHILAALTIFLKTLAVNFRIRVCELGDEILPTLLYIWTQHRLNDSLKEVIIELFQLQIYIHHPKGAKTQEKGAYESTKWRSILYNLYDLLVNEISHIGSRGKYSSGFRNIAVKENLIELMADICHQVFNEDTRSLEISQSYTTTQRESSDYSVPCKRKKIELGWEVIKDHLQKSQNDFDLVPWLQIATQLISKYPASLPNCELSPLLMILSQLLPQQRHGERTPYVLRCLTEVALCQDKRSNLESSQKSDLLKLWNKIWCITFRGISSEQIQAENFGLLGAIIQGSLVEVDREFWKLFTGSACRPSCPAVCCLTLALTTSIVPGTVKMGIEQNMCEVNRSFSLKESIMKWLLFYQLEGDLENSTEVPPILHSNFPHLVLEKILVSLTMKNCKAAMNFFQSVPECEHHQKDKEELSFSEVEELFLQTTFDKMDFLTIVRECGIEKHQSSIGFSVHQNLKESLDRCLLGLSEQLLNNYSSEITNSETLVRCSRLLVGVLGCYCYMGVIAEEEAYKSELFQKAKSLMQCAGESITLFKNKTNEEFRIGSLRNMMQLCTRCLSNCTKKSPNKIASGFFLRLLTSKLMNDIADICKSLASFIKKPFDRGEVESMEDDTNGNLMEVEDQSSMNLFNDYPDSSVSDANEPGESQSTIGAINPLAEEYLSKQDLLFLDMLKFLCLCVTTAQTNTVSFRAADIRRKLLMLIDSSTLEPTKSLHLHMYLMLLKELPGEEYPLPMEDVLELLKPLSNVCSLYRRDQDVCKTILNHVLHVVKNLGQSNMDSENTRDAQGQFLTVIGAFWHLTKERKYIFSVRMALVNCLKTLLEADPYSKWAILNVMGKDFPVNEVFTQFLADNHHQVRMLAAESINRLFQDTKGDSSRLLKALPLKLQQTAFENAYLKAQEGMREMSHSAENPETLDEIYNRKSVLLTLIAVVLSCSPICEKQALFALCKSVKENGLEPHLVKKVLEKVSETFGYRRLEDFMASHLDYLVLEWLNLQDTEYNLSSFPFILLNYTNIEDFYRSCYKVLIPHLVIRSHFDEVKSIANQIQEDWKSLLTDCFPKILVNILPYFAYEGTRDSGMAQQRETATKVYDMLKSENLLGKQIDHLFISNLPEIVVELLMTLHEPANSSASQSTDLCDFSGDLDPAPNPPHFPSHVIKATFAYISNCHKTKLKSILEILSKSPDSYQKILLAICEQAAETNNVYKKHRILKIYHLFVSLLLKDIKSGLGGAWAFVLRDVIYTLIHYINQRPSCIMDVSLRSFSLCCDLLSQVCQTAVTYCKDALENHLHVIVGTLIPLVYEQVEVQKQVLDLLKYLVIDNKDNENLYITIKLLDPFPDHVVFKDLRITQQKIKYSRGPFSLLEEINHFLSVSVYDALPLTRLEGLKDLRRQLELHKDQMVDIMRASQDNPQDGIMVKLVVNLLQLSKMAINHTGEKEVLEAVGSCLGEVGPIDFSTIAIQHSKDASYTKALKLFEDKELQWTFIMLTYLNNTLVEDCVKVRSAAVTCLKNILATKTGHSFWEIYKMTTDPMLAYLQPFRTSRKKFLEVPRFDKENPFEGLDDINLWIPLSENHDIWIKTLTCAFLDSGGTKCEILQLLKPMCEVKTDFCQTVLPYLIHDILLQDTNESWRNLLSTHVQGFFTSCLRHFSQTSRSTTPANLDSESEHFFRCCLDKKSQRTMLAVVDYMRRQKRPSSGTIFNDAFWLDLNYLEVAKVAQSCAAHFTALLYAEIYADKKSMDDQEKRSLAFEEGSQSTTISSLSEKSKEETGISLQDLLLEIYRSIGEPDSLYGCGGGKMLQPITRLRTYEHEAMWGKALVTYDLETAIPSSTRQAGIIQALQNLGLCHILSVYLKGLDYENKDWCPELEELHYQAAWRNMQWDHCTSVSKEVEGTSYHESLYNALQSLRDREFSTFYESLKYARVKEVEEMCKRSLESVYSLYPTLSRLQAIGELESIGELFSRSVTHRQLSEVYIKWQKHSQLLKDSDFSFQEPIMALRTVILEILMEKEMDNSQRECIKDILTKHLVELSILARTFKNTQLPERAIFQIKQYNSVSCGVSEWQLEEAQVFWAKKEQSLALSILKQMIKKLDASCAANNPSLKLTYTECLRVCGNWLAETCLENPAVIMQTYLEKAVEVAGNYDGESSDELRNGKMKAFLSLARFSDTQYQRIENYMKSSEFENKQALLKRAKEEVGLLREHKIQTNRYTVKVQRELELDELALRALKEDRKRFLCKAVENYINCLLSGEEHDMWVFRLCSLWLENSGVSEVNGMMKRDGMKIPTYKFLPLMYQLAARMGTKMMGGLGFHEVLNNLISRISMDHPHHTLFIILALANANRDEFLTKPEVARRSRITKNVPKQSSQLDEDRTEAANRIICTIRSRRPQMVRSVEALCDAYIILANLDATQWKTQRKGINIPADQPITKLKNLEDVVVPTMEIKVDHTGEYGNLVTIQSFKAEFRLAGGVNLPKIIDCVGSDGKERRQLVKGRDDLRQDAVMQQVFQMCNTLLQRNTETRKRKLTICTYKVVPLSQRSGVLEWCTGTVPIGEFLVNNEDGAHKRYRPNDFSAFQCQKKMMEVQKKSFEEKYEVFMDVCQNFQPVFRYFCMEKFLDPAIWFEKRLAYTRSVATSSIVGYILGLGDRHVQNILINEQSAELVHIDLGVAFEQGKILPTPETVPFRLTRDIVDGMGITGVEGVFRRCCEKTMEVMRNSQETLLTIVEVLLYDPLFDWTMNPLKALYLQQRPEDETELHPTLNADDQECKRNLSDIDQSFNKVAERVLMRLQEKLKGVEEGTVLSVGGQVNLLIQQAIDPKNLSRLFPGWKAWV
PI3K-α, sequence (P42336 whole entry): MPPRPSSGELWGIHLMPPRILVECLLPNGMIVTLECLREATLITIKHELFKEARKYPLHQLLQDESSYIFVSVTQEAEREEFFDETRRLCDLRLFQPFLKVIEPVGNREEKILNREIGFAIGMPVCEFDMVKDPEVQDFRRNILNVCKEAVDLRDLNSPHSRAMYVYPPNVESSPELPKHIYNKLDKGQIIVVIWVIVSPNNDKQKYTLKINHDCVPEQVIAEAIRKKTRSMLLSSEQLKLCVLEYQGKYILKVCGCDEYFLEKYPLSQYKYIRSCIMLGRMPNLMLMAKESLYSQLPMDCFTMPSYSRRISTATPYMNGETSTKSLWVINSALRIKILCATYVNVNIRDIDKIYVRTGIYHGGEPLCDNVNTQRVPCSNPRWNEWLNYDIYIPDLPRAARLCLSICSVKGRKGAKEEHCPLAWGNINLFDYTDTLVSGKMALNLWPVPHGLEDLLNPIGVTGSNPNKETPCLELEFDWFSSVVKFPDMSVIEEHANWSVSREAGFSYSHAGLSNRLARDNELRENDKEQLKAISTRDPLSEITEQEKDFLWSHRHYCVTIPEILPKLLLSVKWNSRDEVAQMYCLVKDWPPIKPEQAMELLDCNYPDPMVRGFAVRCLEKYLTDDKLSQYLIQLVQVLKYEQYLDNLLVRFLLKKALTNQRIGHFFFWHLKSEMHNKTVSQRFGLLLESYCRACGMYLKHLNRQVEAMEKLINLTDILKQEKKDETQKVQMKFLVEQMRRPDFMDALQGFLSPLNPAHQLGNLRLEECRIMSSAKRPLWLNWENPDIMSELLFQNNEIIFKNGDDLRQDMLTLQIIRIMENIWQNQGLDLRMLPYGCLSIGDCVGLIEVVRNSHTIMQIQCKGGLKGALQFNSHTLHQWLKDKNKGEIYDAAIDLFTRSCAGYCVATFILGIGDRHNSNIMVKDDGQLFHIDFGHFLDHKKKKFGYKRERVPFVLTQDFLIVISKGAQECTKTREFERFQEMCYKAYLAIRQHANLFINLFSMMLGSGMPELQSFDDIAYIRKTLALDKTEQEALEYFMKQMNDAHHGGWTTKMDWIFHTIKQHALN
PI3K-α, sequence (P27986 2-724, further chain): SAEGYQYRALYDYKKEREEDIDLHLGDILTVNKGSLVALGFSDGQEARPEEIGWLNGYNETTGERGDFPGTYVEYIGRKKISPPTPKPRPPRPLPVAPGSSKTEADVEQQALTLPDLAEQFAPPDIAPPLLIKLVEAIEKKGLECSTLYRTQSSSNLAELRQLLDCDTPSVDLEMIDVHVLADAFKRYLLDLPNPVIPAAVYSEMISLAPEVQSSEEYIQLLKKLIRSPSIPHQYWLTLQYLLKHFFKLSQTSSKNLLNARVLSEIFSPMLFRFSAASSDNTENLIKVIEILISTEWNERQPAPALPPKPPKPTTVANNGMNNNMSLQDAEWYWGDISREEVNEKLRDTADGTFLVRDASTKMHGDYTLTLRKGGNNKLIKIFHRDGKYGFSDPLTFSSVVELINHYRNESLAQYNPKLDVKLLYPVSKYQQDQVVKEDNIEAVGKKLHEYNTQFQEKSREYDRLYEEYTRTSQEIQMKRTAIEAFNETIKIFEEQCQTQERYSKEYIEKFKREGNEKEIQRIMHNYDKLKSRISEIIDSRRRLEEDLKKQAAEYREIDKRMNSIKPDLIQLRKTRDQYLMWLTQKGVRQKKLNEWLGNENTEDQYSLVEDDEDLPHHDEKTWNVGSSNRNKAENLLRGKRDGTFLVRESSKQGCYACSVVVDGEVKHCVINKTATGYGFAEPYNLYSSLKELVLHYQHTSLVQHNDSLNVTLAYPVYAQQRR

Row | Compound | IC50 [1, 5] [nM] | Assay c) PI3Ka Cell IC50 [2] [nM] | IC50 [3, 6] [nM] | IC50 [4, 7] [nM] | IC50 [4, 8] [nM] | IC50 [1, 9] [nM] | IC50 [2] [nM] | IC50 [3, 10] [nM]
1 | COc1ccc(-c2ccc3ncc4c(c3c2)n(C2CCNCC2)c(=O)n4C)cn1 [CN102372711A Compound 1, reference compound] | 281 | 188 | 237 | – | – | – | – | –
2 | COc1ccc(-c2ccc3ncc4c(c3c2)n(C2CCN(C(C)=O)CC2)c(=O)n4C)cn1 [CN102372711A Compound 5, reference compound] | 64.4 | 153 | 113 | 26.5 | – | – | – | –
3 | Cn1c(=O)n(C2CNC2)c2c3cc(-c4cnc5[nH]ccc5c4)ccc3ncc21 [CN102399218A Compound 61, reference compound] | 1480 | 1730 | 177 | 3460 | – | – | – | –
4 | Cn1c(=O)n(C2CC2)c2c3cc(-c4cnc5[nH]ccc5c4)ccc3ncc21 [CN102399218A Compound 62, reference compound] | 56.3 | 149 | 15.5 | 80 | – | – | – | –
5 | Cn1c(=O)n(C2CC2)c2c3cc(-c4cnc(N)nc4)ccc3ncc21 [CN102399218A Compound 64, reference compound] | 162 | 247 | 287 | 216 | – | – | – | –
6 | Cn1c(=O)n(C2CCOCC2)c2c3cc(-c4cnc(N)nc4)ccc3ncc21 [CN102399218A Compound 94, reference compound] | 12.9 | 80.4 | 41.4 | 494 | – | – | – | –
7 | COc1ncc(-c2ccc3ncc4c(c3c2)n(C2CC2)c(=O)n4C)cc1NS(=O)(=O)C1CC1 [CN102399218A Compound 114, reference compound] | 68.6 | 13.1 | 46.9 | 74.1 | – | – | – | –
8 | CC(C)n1c(=O)n(C)c2cnc3ccc(-c4ccc(OCCN(C)C)cc4)cc3c21 [Example 5, 8-[4-[2-(Dimethylamino)ethoxy]phenyl]-1-isopropyl-3-methyl-imidazo[4,5-c]quinolin-2-one] | – | – | – | – | 14.8 | > 30000 | > 26900 | –
9 | CN(C)CCCOc1ccc(-c2ccc3ncc4c(c3c2)n([C@@H]2CCCOC2)c(=O)n4C)cc1 [Example 8, 8-[4-[3-(dimethylamino)propoxy]phenyl]-3-methyl-1-[(3R)-tetrahydropyran-3-yl]imidazo[4,5-c]quinolin-2-one] | – | – | – | – | – | > 30000 | 311 | 1420
10 | CN(C)CCCOc1ccc(-c2ccc3ncc4c(c3c2)n([C@H]2CCCOC2)c(=O)n4C)cc1 [Example 9, 8-[4-[3-(dimethylamino)propoxy]phenyl]-3-methyl-1-[(3S)-tetrahydropyran-3-yl]imidazo[4,5-c]quinolin-2-one] | – | – | – | – | – | > 30000 | 15200 | –
11 | CO[C@H]1C[C@@H](n2c(=O)n(C)c3cnc4cc(F)c(-c5ccc(OCCCN(C)C)cc5)cc4c32)C1 [Example 12, 8-[4-[3-(dimethylamino)propoxy]phenyl]-7-fluoro-1-(cis3-methoxycyclobutyl)-3-methyl-imidazo[4,5-c]quinolin-2-one] | – | – | – | – | 1.88 | > 30000 | 20400 | 5560
12 | CN(C)CCOc1ccc(-c2ccc3ncc4c(c3c2)n([C@H]2CCCOC2)c(=O)n4C)cc1 [Example 47, 8-[4-[2-(Dimethylamino)ethoxy]phenyl]-3-methyl-1-[(3S)-tetrahydropyran-3-yl]imidazo[4,5-c]quinolin-2-one] | – | – | – | – | 14.4 | > 30000 | > 30000 | 5530
